Measured values from patent US20250042857A1, “SOS1 Inhibitor With Pyrido-Fused Six-Membered Ring Structure” (HAIHE BIOPHARMA CO., LTD., priority 2021, published 2025).

System: p-ERK of PC-9 cells
Experiment: p-ERK HTRF assay in PC-9 cells
Type: cell-based
Conditions: Homo sapiens, PC-9, 1 h, PC-9 lung cancer cells, 1 hour treatment, read-out: IC50, inhibitory activity on p-ERK of PC-9 cells
Description: IC50 Values of Compounds Determined by p-ERK HTRF Assay in PC-9 Cells
Experimental objective: an inhibitory effect of the test compounds on the phosphorylation of PC-9ERK of lung cancer cells at a cellular level was evaluated by detecting the phosphorylation of ERK.
• PRMI 1640 medium (Invitrogen-11875093) • 0.25% pancreatin (Invitrogen-25200056) • Phosphoric acid buffer salt solution (PBS, pH 7.4) (Invitrogen-10010023) • Double-antibody (PS) (Invitrogen-15140122) • Fetal bovine serum (FBS) (Gibco-10091148) • Trypan blue (Gibco-15250061) • 10-cm culture dish (Corning-430167) • 10-mL pipette (Costar-4488) • Pipettor (Sartorius-17009031) • 15-mL centrifuge tube (Corning-430052) • 50-mL centrifuge tube (Corning-430829) • Cryotube (Thermo-377267) • 1.5-mL EP tube (Axygen-MCT-150-C-S) • Cell incubator (Thermo-371) • Microscope (Olympus-CKX41) • Centrifuge (Flying Pigeon-TDL-80-2B) • Cell counter (Countstar-IC-1000) • Envision (Perkin Elmer) • Spark 10M (TECAN) • Phospho-ERK1/2 (Thr202/Tyr204) Experimental kit (Cisbio, Cat. No. 64AERPEG) • PC-9 cells: RPMI1640+10% FBS+1% PS
• 1) PBS, 0.25% pancreatin, and a cell culture medium were placed in a water-bath kettle at 37° C. for preheating; • 2) cells were observed under a microscope, a fusion degree was evaluated, and no bacterial and fungi pollution was confirmed; • 3) a culture solution was removed, the cells were washed with 5 mL of PBS and digested with 2 mL of the 0.25% trypsin, the digestion was terminated with 10 mL of the fresh cell culture medium, a culture dish was rinsed, and the cells were transferred to a 15-mL centrifuge tube; • 4) the collected cells were centrifuged at 1,000 rpm for 5 minutes; • 5) after the centrifugation, the supernatant was discarded, the cells were resuspended in 5 mL of the cell culture medium, 20 μL of the resuspended cells were aspirated, and the number and viability of viable cells were recorded; • 6) the cell culture medium was used and the cell density was adjusted (PC-9:10,000 cells/well, and 45 μL per well); • 7) in a 384-well plate, 45 μL of a cell suspension per well was transferred according to an experimental design figure; and • 8) the cells were incubated overnight at 37° C. and 5% CO2.
• 1) The compounds were diluted from the stock concentration to 10 mM with 100% DMSO (Trametinib was diluted to 1 mM), then 3-fold diluted into 10 points (5 μL of the diluted compounds with the concentration of 10 mM were transferred to 10 μL of the DMSO in an LDV plate), and centrifuged at 1,000 rpm/min for 1 minute; • 2) 5 μL of the diluted compounds of step 1) were transferred to an inter plate 1 containing 45 μL of the cell culture medium (the compounds were diluted from 1,000× to 100×); • 3) 5 μL of the diluted compounds of step 2) were transferred to an inter plate 2 containing 45 μL of the cell culture medium (the compounds were diluted from 100× to 10×); • 4) 5 μL of the compounds were pipetted from the inter plate 2 into a cell culture plate (the compounds were diluted from 10 folds to 1 fold), the final concentrations of the test compounds were 10,000 nM, 3333.33 nM, 1111.11 nM, 370.37 nM, 123.46 nM, 41.15 nM, 13.72 nM, 4.57 nM, 1.52 nM, and […], the solution was centrifuged at 1,000 rpm/min for 1 minute, and the final content of the DMSO was 0.1%; and • 5) the cells were treated in an incubator at 37° C. for 1 hour. […]

Compound | IC50 [nM]
C[C@@H](Nc1ccnc2cnc(N3CCN(C(=O)C4CC4)CC3)cc12)c1cccc(C(F)F)c1F [Compound B-25] | ≤ 300
C[C@@H](Nc1ccnc2cnc(N3CCN(C(=O)C4COC4)CC3)cc12)c1cccc(C(F)F)c1F [Compound B-26] | ≤ 300
C[C@@H](Nc1ccnc2cnc(N3CCN(C(=O)C4CCOCC4)CC3)cc12)c1cccc(C(F)F)c1F [Compound B-27] | ≤ 300
C[C@@H](Nc1ccnc2cnc(N3CCn4nccc4C3)cc12)c1cccc(C(F)F)c1F [Compound B-28] | 300 to 1000

Target: KRAS-G12C/SOS1 (Homo sapiens (Human), UniProt Q07889)
Sequence (Q07889 whole entry, stated change not applied): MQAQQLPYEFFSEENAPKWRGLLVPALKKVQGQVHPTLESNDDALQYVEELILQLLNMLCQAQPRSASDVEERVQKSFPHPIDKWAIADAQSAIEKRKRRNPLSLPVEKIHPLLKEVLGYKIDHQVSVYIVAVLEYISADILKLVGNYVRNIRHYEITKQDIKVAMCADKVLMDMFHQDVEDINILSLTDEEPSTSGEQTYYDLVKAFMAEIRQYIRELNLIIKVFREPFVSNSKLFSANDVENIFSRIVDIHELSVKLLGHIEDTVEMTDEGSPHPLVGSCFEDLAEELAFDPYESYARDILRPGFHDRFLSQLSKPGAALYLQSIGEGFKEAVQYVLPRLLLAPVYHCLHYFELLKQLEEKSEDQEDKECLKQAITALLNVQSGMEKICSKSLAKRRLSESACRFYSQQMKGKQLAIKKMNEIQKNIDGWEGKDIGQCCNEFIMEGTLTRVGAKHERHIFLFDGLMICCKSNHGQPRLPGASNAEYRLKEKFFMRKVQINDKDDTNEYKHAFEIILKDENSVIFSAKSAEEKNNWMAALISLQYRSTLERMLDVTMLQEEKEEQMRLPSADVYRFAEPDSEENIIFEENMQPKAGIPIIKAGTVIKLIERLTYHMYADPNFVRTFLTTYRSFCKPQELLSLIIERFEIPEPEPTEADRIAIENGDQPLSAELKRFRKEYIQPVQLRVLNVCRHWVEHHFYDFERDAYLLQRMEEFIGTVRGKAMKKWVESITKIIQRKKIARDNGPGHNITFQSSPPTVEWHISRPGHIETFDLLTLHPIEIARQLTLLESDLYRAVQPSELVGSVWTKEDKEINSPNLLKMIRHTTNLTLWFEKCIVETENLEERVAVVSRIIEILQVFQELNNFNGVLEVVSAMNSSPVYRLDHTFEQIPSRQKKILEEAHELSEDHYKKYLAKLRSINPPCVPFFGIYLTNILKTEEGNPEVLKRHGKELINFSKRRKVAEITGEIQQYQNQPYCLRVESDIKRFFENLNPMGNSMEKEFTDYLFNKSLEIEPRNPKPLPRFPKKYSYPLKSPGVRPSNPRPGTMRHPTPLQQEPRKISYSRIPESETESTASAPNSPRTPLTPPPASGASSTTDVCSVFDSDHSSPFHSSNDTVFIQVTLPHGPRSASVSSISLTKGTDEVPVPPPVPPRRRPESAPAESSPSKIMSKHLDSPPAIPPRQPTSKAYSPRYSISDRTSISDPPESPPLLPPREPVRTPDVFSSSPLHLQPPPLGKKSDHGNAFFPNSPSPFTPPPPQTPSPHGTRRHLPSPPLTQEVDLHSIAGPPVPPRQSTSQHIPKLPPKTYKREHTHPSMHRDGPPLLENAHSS
Experiment: Detection of inhibitory effects of compounds on KRAS-G12C/SOS1 (KRASG12C/SOS binding kit, HTRF)
Conditions: Em665/620, read-out: IC50, inhibitory activity on interaction of KRAS-G12C/SOS1
Text: Experimental objective: The inhibitory effects of the tested compounds on KRAS-G12C/SOS1 were detected. IC50 was used to characterize the inhibitory ability of the compounds on the KRAS-G12C/SOS1. The lower IC50 value indicated the stronger inhibitory ability. BI-3406 was used as a positive control compound.
Experimental reagents: KRASG12C/SOS binding kit (Cisbio, cat. 63ADK000CB16PEG); DMSO (Sigma, cat. D8418-1L); and 384-well white plate (PerkinElmer, cat. 6007290)
• 1. Preparation of compounds: the test compounds were dissolved in 100% DMSO to obtain 10 mM stock solutions and the stock solutions were stored in a refrigerator in the dark. • 2. Kinase reaction process:
Preparation of compounds: the test compounds had the concentration of 5,000 nM and diluted in a 384-well plate into a 100% DMSO solution at the 200-fold final concentration, and the compounds were diluted 3-fold with 10 concentrations. 50 nL of the compounds at the 200-fold final concentration were transferred to the plate of interest, the 384-well plate, using a dispenser Echo 550. 50 nL of 100% DMSO was added to each negative control well and positive control well.
A Tag1-SOS1 solution at the 4-fold final concentration was prepared using a diluent buffer.
2.5 μL of the Tag1-SOS1 solution at the 4-fold final concentration was added to the 384-well plate.
A Tag2-KRAS-G12C solution at the 4-fold final concentration was prepared using the diluent buffer.
2.5 μL of the Tag2-KRAS-G12C solution at the 4-fold final concentration was respectively added into compound wells and the positive control wells; and 2.5 μL of the diluent buffer was added to the negative control wells.
The 384-well plate was centrifuged at 1,000 rpm for 30 seconds, shaken and mixed uniformly, and incubated at room temperature for 15 minutes.
An Anti-Tag1-TB3+ solution at the 1-fold final concentration and an Anti-Tag2-XL665 solution at the 1-fold final concentration were prepared using a detection buffer, the two solutions were mixed uniformly to obtain a Mix solution, and 5 μL of the Mix solution was added into each well.
The 384-well plate was centrifuged at 1,000 rpm for 30 seconds, shaken and mixed uniformly, and incubated at 4° C. for 120 minutes.
Em665/620 was read using an Envision microplate reader.
Inhibition %=(Max signal−Compound signal)/(Max signal−Min signal)×100 Calculation formula • wherein the Min signal was the mean value of the negative control wells, and the Max signal was the mean value of the positive control wells.
A dose-response curve was fitted using the log value of the concentration as an X axis and the percentage of the inhibitory rate as a Y axis by using the log(inhibitor) vs. response-variable slope of an analytical software GraphPadPrism5, thereby obtaining the IC50 value of each compound on an enzyme activity.

Compound | IC50 [nM]
Cc1c([C@@H](C)Nc2ccnc3cnc(C4(O)CCC(O)CC4)cc23)cccc1C(F)(F)F (single isomer, unassigned) [Compound B-84-P1] | 100 to 500
Cc1c([C@@H](C)Nc2ccnc3cnc(C4(O)CCC(O)CC4)cc23)cccc1C(F)(F)F (single isomer, unassigned) [Compound B-84-P2] | 100 to 500
Cc1c(C(F)F)cccc1[C@@H](C)Nc1ccnc2cnc(C3(O)CCC(O)CC3)cc12 (single isomer, unassigned) [Compound B-86-P1] | 100 to 500
Cc1c(C(F)F)cccc1[C@@H](C)Nc1ccnc2cnc(C3(O)CCC(O)CC3)cc12 (single isomer, unassigned) [Compound B-86-P2] | 100 to 500
Cc1cc(N[C@H](C)c2cccc(C(F)F)c2F)c2cc(C3(O)CCC(O)CC3)ncc2n1 (single isomer, unassigned) [Compound B-88-P1] | ≤ 100
C[C@@H](Nc1ccnc2cnc(C3(O)CCC(N(C)C)CC3)cc12)c1cccc(C(F)F)c1F (single isomer, unassigned) [Compound B-94-P1] | ≤ 100
C[C@@H](Nc1ccnc2cnc(C3(O)CCC(N4CCNCC4)CC3)cc12)c1cccc(C(F)F)c1F (single isomer, unassigned) [Compound B-97-P1] | ≤ 100
COc1cc2nccc(N[C@H](C)c3cccc(C(F)F)c3F)c2cc1OC [Compound A-1] | ≤ 100
COc1cc2nc(C)cc(N[C@H](C)c3cccc(C(F)F)c3F)c2cc1OC [Compound A-2] | ≤ 100
COc1cc2nccc(N[C@H](C)c3cccc(C(F)F)c3F)c2cc1O[C@H]1CCOC1 [Compound A-3] | ≤ 100
COc1cc2nccc(N[C@H](C)c3cccc(C#N)c3C)c2cc1O[C@H]1CCOC1 [Compound A-4] | 100 to 500
COc1cc2nccc(N[C@H](C)c3cccc(C(F)F)c3F)c2cc1O[C@H]1CCNC1 [Compound A-5] | ≤ 100
COc1cc2nccc(N[C@H](C)c3cccc(C(F)F)c3F)c2cc1O[C@H]1CCN(C(C)=O)C1 [Compound A-6] | ≤ 100
COc1cc2nccc(N[C@H](C)c3cccc(C(F)F)c3F)c2cc1O[C@@H]1CCN(C(C)=O)C1 [Compound A-7] | 100 to 500
COc1cc2c(N[C@H](C)c3cccc(C(F)F)c3F)ccnc2cc1OC1CCN(C(C)=O)CC1 [Compound A-16] | ≤ 100
COc1cc2nccc(N[C@H](C)c3cccc(C(F)F)c3F)c2cc1OC1CCNCC1 [Compound A-17] | ≤ 100
COc1cc2nccc(N[C@H](C)c3cccc(C(F)F)c3F)c2cc1OC1CCN(C(C)=O)CC1 [Compound A-18] | ≤ 100
COc1cc2nccc(N[C@H](C)c3cccc(C(F)F)c3F)c2cc1C1=CCN(C(C)=O)CC1 [Compound A-39] | ≤ 100

Compound | IC50 [nM]
COc1cc2nccc(N[C@H](C)c3cccc(C(F)F)c3F)c2cc1C1CCN(C(C)=O)CC1 [Compound A-40] | ≤ 100
COc1cc2nccc(N[C@H](C)c3cccc(C(F)F)c3F)c2cc1C1CCN(S(C)(=O)=O)CC1 [Compound A-41] | ≤ 100
COc1cc2nccc(N[C@H](C)c3cccc(C(F)F)c3F)c2cc1C1=CCS(=O)(=O)CC1 [Compound A-45] | ≤ 100
COc1cc2nccc(N[C@H](C)c3cccc(C(F)F)c3F)c2cc1C1CCS(=O)(=O)CC1 [Compound A-46] | ≤ 100
COc1cc2nccc(N[C@H](C)c3cccc(C(F)F)c3F)c2cc1C1(O)CCN(C(C)=O)CC1 [Compound A-58] | ≤ 100
COc1cc2nccc(N[C@H](C)c3cccc(C(F)F)c3F)c2cc1C1(OC)CCN(C(C)=O)CC1 [Compound A-59] | ≤ 100
C[C@@H](Nc1ccnc2cnc(N3CCN(CCO)CC3)cc12)c1cccc(C(F)F)c1F [Compound B-43] | ≤ 100
CNC(=O)C1CCN(c2cc3c(N[C@H](C)c4cccc(C(F)F)c4F)ccnc3cn2)C(=O)C1 (stereo partly drawn) [Compound B-55] | ≤ 100
C[C@@H](Nc1ccnc2cnc(N3CC(O)CC3=O)cc12)c1cccc(C(F)F)c1F (stereo partly drawn) [Compound B-57] | 100 to 500
C[C@@H](Nc1ccnc2cnc(N3CCC(O)C3=O)cc12)c1cccc(C(F)F)c1F (stereo partly drawn) [Compound B-58] | ≤ 100
C[C@@H](Nc1ccnc2cnc(N3CCCC3=O)cc12)c1cccc(C(F)F)c1F [Compound B-59] | ≤ 100
C[C@@H](Nc1ccnc2cnc(N3CCC(N(C)C)CC3)cc12)c1cccc(C(F)F)c1F [Compound B-61] | ≤ 100
CC(=O)C1CCN(c2cc3c(N[C@H](C)c4cccc(C(F)F)c4F)ccnc3c(C)n2)CC1 [Compound B-66] | ≤ 100
C[C@@H](Nc1ccnc2cnc(N3C[C@@H](O)C[C@H]3CO)cc12)c1cccc(C(F)F)c1F [Compound B-77] | ≤ 100
COC(=O)C1CCC(O)(c2cc3c(N[C@H](C)c4cccc(C(F)F)c4F)ccnc3cn2)CC1 (stereo partly drawn) [Compound B-99] | ≤ 100
C[C@@H](Nc1ccnc2cnc(C(C)(C)O)cc12)c1cccc(C(F)F)c1F [Compound B-105] | ≤ 100
C[C@@H](Nc1ccnc2cnc(C(C)(O)C3CC3)cc12)c1cccc(C(F)F)c1F (stereo partly drawn) [Compound B-106] | ≤ 100
